Test results taken from ChEMBL document CHEMBL6177921, “Enhancing the antimycobacterial efficacy of pyridine-4-carbohydrazide: linkage to additional antimicrobial agents via oxocarboxylic acids” (RSC Med Chem, 2025).
Converted amounts (≈) assume the structure as drawn.

Assays:
Assay type in all cases: functional
[1] = system: Mycobacterium tuberculosis; test: Antimycobacterial activity against STM/INH/EMB/RIF/OFX/GEN/AMK-resistant Mycobacterium tuberculosis clinical isolate Praha 131 assessed as bacterial growth inhibition incubated for 14 days by two-fold serial dilution method; settings: Praha 131, 336 h, time 14 day
[2] = system: Mycobacterium tuberculosis; test: Antimycobacterial activity against TM/INH/EMB/RIF/OFX/GEN/AMK-resistant Mycobacterium tuberculosis clinical isolate Praha 131 assessed as bacterial growth inhibition incubated for 21 days by two-fold serial dilution method; settings: Praha 131, 504 h, time 21 day
[3] = system: Mycobacterium tuberculosis; test: Antimycobacterial activity against STM/INH/RIF resistant Mycobacterium tuberculosis clinical isolate 9449/2007 strain assessed as bacterial growth inhibition incubated for 14 days by two-fold serial dilution method; settings: 9449/2007, 336 h, time 14 day
[4] = system: Mycobacterium tuberculosis; test: Antimycobacterial activity against STM/INH/RIF resistant Mycobacterium tuberculosis clinical isolate 9449/2007 strain assessed as bacterial growth inhibition incubated for 21 days by two-fold serial dilution method; settings: 9449/2007, 504 h, time 21 day
[5] = system: Mycobacterium tuberculosis; test: Antimycobacterial activity against STM/INH/EMB/RIF/OFX/CLO resistant Mycobacterium tuberculosis clinical isolate 8666/2010 strain assessed as bacterial growth inhibition incubated for 14 days by two-fold serial dilution method; settings: 8666/2010, 336 h, time 14 day
[6] = system: Mycobacterium tuberculosis; test: Antimycobacterial activity against STM/INH/EMB/RIF/OFX/CLO resistant Mycobacterium tuberculosis clinical isolate 8666/2010 strain assessed as bacterial growth inhibition incubated for 21 days by two-fold serial dilution method; settings: 8666/2010, 504 h, time 21 day
[7] = system: Mycobacterium tuberculosis; test: Antimycobacterial activity against STM/INH/EMB/RIF/CLO-resistant Mycobacterium tuberculosis clinical isolate Praha 1 assessed as bacterial growth inhibition incubated for 14 days by two-fold serial dilution method; settings: Praha 1, 336 h, time 14 day
[8] = system: Mycobacterium tuberculosis; test: Antimycobacterial activity against STM/INH/EMB/RIF/CLO-resistant Mycobacterium tuberculosis clinical isolate Praha 1 assessed as bacterial growth inhibition incubated for 21 days by two-fold serial dilution method; settings: Praha 1, 504 h, time 21 day
[9] = system: Mycobacterium tuberculosis; test: Antimycobacterial activity against STM/INH/EMB/RIF/OFX/CLO resistant Mycobacterium tuberculosis clinical isolate Praha 4 assessed as bacterial growth inhibition incubated for 14 days by two-fold serial dilution method; settings: Praha 4, 336 h, time 14 day
[10] = system: Mycobacterium tuberculosis; test: Antimycobacterial activity against STM/INH/EMB/RIF/OFX/CLO-resistant Mycobacterium tuberculosis clinical isolate Praha 4 assessed as bacterial growth inhibition incubated for 21 days by two-fold serial dilution method; settings: Praha 4, 504 h, time 21 day
[11] = system: Mycobacterium tuberculosis; test: Antimycobacterial activity against STM/INH/EMB/RIF resistant Mycobacterium tuberculosis clinical isolate 234/2005 assessed as bacterial growth inhibition incubated for 14 days by two-fold serial dilution method; settings: 234/2005, 336 h, time 14 day
[12] = system: Mycobacterium tuberculosis; test: Antimycobacterial activity against STM/INH/EMB/RIF resistant Mycobacterium tuberculosis clinical isolate 234/2005 strain assessed as bacterial growth inhibition incubated for 21 days by two-fold serial dilution method; settings: 234/2005, 504 h, time 21 day
[13] = system: Mycobacterium tuberculosis; test: Antimycobacterial activity against STM/INH/EMB/RIF/OFX resistant Mycobacterium tuberculosis clinical isolate 7357/1998 strain assessed as bacterial growth inhibition incubated for 14 days by two-fold serial dilution method; settings: 7357/1998, 336 h, time 14 day
[14] = system: Mycobacterium tuberculosis; test: Antimycobacterial activity against STM/INH/EMB/RIF/OFX resistant Mycobacterium tuberculosis clinical isolate 7357/1998 strain assessed as bacterial growth inhibition incubated for 21 days by two-fold serial dilution method; settings: 7357/1998, 504 h, time 21 day

| Compound | MIC [1] [µM] | MIC [2] [µM] | MIC [3] [µM] | MIC [4] [µM] | MIC [5] [µM] | MIC [6] [µM] | MIC [7] [µM] | MIC [8] [µM] | MIC [9] [µM] | MIC [10] [µM] | MIC [11] [µM] | MIC [12] [µM] | MIC [13] [µM] | MIC [14] [µM] |
| --- | --- | --- | --- | --- | --- | --- | --- | --- | --- | --- | --- | --- | --- | --- |
| C/C(=N\NC(=O)c1ccncc1)C(=O)Nc1ccc(Sc2ccc([N+](=O)[O-])cc2)cc1 | ≥ 250 | ≥ 250 | ≥ 250 | ≥ 250 | ≥ 250 | ≥ 250 | – | – | – | – | – | – | – | – |
| CC1COc2c(N3CCN(C)CC3)c(F)cc3c(=O)c(C(=O)O)cn1c23 (stereo not drawn) [OFLOXACIN] | 22 (≈ 7.95 µg/mL) | > 17 | 2.8 (≈ 1.01 µg/mL) | 2.8 (≈ 1.01 µg/mL) | 11 (≈ 3.98 µg/mL) | 11 (≈ 3.98 µg/mL) | 1.4 (≈ 0.506 µg/mL) | 1.4 (≈ 0.506 µg/mL) | > 22 | > 22 | 0.7 (≈ 0.253 µg/mL) | 0.7 (≈ 0.253 µg/mL) | 11 (≈ 3.98 µg/mL) | 11 (≈ 3.98 µg/mL) |
| CNC(C)[C@@H]1CC[C@@H](N)[C@@H](O[C@H]2[C@H](O)[C@@H](O[C@H]3OC[C@](C)(O)[C@H](NC)[C@H]3O)[C@H](N)C[C@@H]2N)O1.CN[C@@H]1[C@@H](O)[C@@H](O[C@@H]2[C@@H](O)[C@H](O[C@H]3O[C@H](C(C)N)CC[C@H]3N)[C@@H](N)C[C@H]2N)OC[C@]1(C)O.CN[C@@H]1[C@@H](O)[C@@H](O[C@@H]2[C@@H](O)[C@H](O[C@H]3O[C@H](CN)CC[C@H]3N)[C@@H](N)C[C@H]2N)OC[C@]1(C)O (stereo partly drawn) | > 17 | > 17 | 1 | 1 | 4 | 4 | 1 | 1 | 0.5 | 0.5 | 0.26 | 0.26 | 1 | 1 |
| C/C(=N\NC(=O)c1ccncc1)C(=O)Nc1ccc(-c2ccccc2)cc1 | 32 (≈ 11.5 µg/mL) | 64 (≈ 22.9 µg/mL) | 64 (≈ 22.9 µg/mL) | 64 (≈ 22.9 µg/mL) | 64 (≈ 22.9 µg/mL) | 64 (≈ 22.9 µg/mL) | 32 (≈ 11.5 µg/mL) | 64 (≈ 22.9 µg/mL) | 64 (≈ 22.9 µg/mL) | 64 (≈ 22.9 µg/mL) | 64 (≈ 22.9 µg/mL) | 125 (≈ 44.8 µg/mL) | 64 (≈ 22.9 µg/mL) | 125 (≈ 44.8 µg/mL) |
| C/C(=N\NC(=O)c1ccncc1)C(=O)Nc1ccc(Oc2ccccc2)cc1 | 16 (≈ 5.99 µg/mL) | 16 (≈ 5.99 µg/mL) | 16 (≈ 5.99 µg/mL) | 16 (≈ 5.99 µg/mL) | 16 (≈ 5.99 µg/mL) | 16 (≈ 5.99 µg/mL) | 16 (≈ 5.99 µg/mL) | 16 (≈ 5.99 µg/mL) | 16 (≈ 5.99 µg/mL) | 16 (≈ 5.99 µg/mL) | 8 (≈ 3 µg/mL) | 16 (≈ 5.99 µg/mL) | 16 (≈ 5.99 µg/mL) | 16 (≈ 5.99 µg/mL) |
| C/C(=N\NC(=O)c1ccncc1)C(=O)Nc1ccc(S(=O)(=O)Nc2cc(C)on2)cc1 | ≥ 250 | ≥ 250 | ≥ 250 | ≥ 250 | ≥ 250 | ≥ 250 | – | – | – | – | – | – | – | – |
